For this assay, the system named is Fisher 344 rats fed a choline-deficiented, L-amino acid-defined (CDAA) diet (animal model for fatty liver). The assay can be described thus: CDAA diet rat model for fatty liver: liver staining for lipid droplets and serum triglyceride. Type of assay: in vivo. The procedure: Fisher 344 rats were fed only a general diet or a choline-deficiented, L-amino acid-defined (CDAA) diet to prepare a control group and a CDAA group as an animal model for fatty liver, respectively. Three medicament-treated groups were prepared by administering the following three medicaments to the CDAA groups every day. (Aspirin and ticlopidine are medicaments having the same platelet aggregation inhibitory action as cilostazol.)
In addition, the amount of triglyceride in the liver as well as the serum level of triglyceride in those rats were measured.

On to `O=C1CCc2cc(OCCCCc3nnnn3C3CCCCC3)ccc2N1` [cilostazol, 6-[4-(1-cyclohexyl-1H-tetrazol-5-yl)butoxy]-3,4-dihydrocarbostyril], for which the “lipid droplet of liver (Hematoxylin-eosin staining and Masson staining)” value (CDAA diet + 6 mg/kg every day for 6 weeks, compared with CDAA group without cilostazol and with aspirin (5 mg/kg) / ticlopidine (10 mg/kg) groups, FIG. 1-9) is on record as “markedly less”. Further, the “serum level of triglyceride” value (CDAA diet + 6 mg/kg every day, 6 weeks after start of administration, compared with control group and other medicaments-treated groups, FIG. 10) is “significantly lower”.

The values above are taken from patent US8642618B2, “Carbostyril derivatives including cilostazol for treating fatty liver” (Otsuka Pharmaceutical Co., Ltd., priority 2007, dated 2014).
